Like-named read-outs stand apart in the source and are kept apart here.
What was measured:
[1] = chemical stability of active ingredient in liquid formulation after storage at 54° C. for two weeks (HPLC, relative to −10° C. control); format: physicochemical
Method: Chemical stability can be determined as a percentage of the sulfonyl urea remaining (e.g. as determined by HPLC) when the liquid composition (e.g. a 50 ml sample of the liquid composition in a 60 ml hermetically sealed Winchester bottle) has been stored at 54° C. for two weeks relative to a corresponding control sample that has been stored at −10° C. for two weeks.
Sulfonylurea was added to a solvent in an amount of 25 wt. %. The mixture was placed in a mill (Eiger Torrance Mini Mill) containing glass beads (1.0-1.25 mm). The suspension was then milled to provide a 25 wt. % sulfonylurea millbase having a particle size (D50) between 2 and 3 μm.
Lithium salt was added to solvent in an amount of 25 wt. % and milled as described above to provide a 25 wt. % lithium salt millbase having a particle size (D50) between 2 and 3 μm.
An appropriate amount of the milled concentrate of sulfonylurea (i) was blended with solvent (optionally containing surfactant) until homogenous, and then further blended with milled concentrate of lithium salt (ii) until homogenous, resulting in the oil dispersions as described in the tables below.
The liquid formulations were stored in tightly closed glass bottles in thermostatically controlled incubators at 54° C. for two weeks with control samples stored at −10° C. After storage, all formulations were analysed for active ingredient content(s) by HPLC. Stability is reported with respect to the amount of active ingredient remaining relative to a corresponding sample stored at −10° C. for two weeks.

[2] = after 5 days, depending on the selected solvent; U.S. Pat. No. 5,731,264; cited from earlier work
[3] = one week of storage at 40° C.; WO 2007/027863 A2; cited from earlier work
[4] = in the presence of lithium acetate

| SMILES | chemical stability in the presence of lithium acetate [1, 4] | also measured |
| --- | --- | --- |
| COC(=O)c1c(Cl)nn(C)c1S(=O)(=O)NC(=O)Nc1nc(OC)cc(OC)n1 [halosulfuron-methyl, methyl 3-chloro-5-[[[[(4,6-dimethoxy-2-pyrimidinyl)amino]carbonyl]amino]sulfonyl]-1-methyl-1H-pyrazole-4-carboxylate] | excellent chemical stability | – |
| COC(=O)c1ccccc1S(=O)(=O)NC(=O)Nc1nc(C)nc(OC)n1 [metsulfuron-methyl, methyl 2-[[[[(4-methoxy-6-methyl-1,3,5-triazin-2-yl)amino]carbonyl]amino]sulfonyl]benzoate] | – | metsulfuron methyl lost [2]: 25-30%; chemical stability in the presence of lithium acetate [1]: excellent chemical stability |
| CCOC(=O)c1cnn(C)c1S(=O)(=O)NC(=O)Nc1nc(OC)cc(OC)n1 [pyrazosulfuron-ethyl, ethyl 5-[[[[(4,6-dimethoxy-2-pyrimidinyl)amino]carbonyl]amino]sulfonyl]-1-methyl-1H-pyrazole-4-carboxylate] | excellent chemical stability | – |
| COC(=O)c1ccc(I)cc1S(=O)(=O)NC(=O)Nc1nc(C)nc(OC)n1 [iodosulfuron-methyl, methyl 4-iodo-2-[[[[(4-methoxy-6-methyl-1,3,5-triazin-2-yl)amino]carbonyl]amino]sulfonyl]benzoate] | excellent chemical stability | chemical stability in the presence of lithium salts ([1]; in the presence of lithium acetate, formate, benzoate, octanoate, salicylate, citrate, carbonate, phosphate, chloride and sulphate): excellent chemical stability |
| COc1cc(OC)nc(NC(=O)NS(=O)(=O)N(C)S(C)(=O)=O)n1 [amidosulfuron, N-[[[[(4,6-dimethoxy-2-pyrimdinyl)amino]carbonyl]amino]sulfonyl]-N-methylmethanesulfonamide] | excellent chemical stability | – |
| COC(=O)c1ccccc1S(=O)(=O)NC(=O)N(C)c1nc(C)nc(OC)n1 [tribenuron-methyl, methyl 2-[[[[N-(4-methoxy-6-methyl-1,3,5-triazin-2-yl)-N-methylamino]carbonyl]amino]-sulfonyl]benzoate] | – | tribenuron-methyl lost [3]: up to 66.5% |

From patent US12364261B2, “Liquid sulfonylurea- and Li-salt containing herbicidal compositions” (priority 2016, dated 2025)
